Measurements published in US20090181975A1, “NEBIVOLOL IN THE TREATMENT OF SEXUAL DYSFUNCTION” (FOREST LABORATORIES HOLDINGS LIMITED, priority 2008, published 2009).

Experiments:
anaesthetized dogs = conditions: cited from earlier work
cGMP in rat plasma [1] = experiment: Plasma cGMP content by ELISA; format: in vivo, rat (Sprague-Dawley)
Method: To determine the plasma cGMP content, Sprague-Dawley rats were anesthetized with urethane (1.25 g/kg). The right carotid artery was catheterized for constant blood pressure and heart rate measurement by means of a pressure transducer connected to a PowerLab data acquisition system (ADInstruments). The left external jugular vein was catheterized for saline or drug infusion. After administering the respective treatments, rat plasma samples were collected, immediately frozen and stored at −80° C. until extraction for cyclic nucleotide assay. cGMP was determined by ELISA using a kit from Cayman Chemical Co. Plasmatic cGMP levels were determined 10 minutes after nebivolol administration.

[2] = system: thiobarbituric acid reactive substances (TBARS) in rat serum; experiment: Serum TBARS in STZ-diabetic rats; format: in vivo, rat (Sprague-Dawley); conditions: for effect on TBARS levels in diabetic rats: groups with and without sildenafil pooled
Method: Male Sprague-Dawley rats were used as a model for this study. Diabetes was induced by a single injection of streptozotocin (STZ, 60 mg/kg; i.p.) dissolved in 0.1 M citric acid/trisodic citrate buffer (pH 4-4.5) and was assessed by glycemia determination 72 h after induction. Animals were kept, with free access to food and water, for 8 weeks before experimental assays. Eight weeks after induction of diabetes, rats show altered in vivo vascular function (Angulo et al., Naunyn-Schmiedeberg's Arch Pharmacol, 358(5), 529-37, 1998) and reduced erectile responses (Angulo et al., J. Sex Med., 2, 341-346, 2005). Blood glucose concentration was determined each week and just before the experiment. Insulin levels were not determined. Blood was collected from the right ventricle, clotted in gel and centrifuged at 1500×g to obtain serum. Thiobarbituric acid reactive substances (TBARS) were determined by reacting thiobarbituric acid with serum samples at 70° C. for 30 min and reading absorbance at 532 nm. Serum concentrations of TBARS were determined by using malondialdehyde (MDA) as a standard. […] Results were expressed as ng/ml of MDA equivalents. […] After 10 days treatment, diabetic rats were anesthetized and erectile responses to cavernosal nerve electrical stimulation (CNES) were determined. After an equilibration period, the PDE-5 inhibitor sildenafil (0.3 mg/kg) or the vehicle (25% glycofurol) was intravenously administered. Forty five minutes later, erectile responses to CNES were again evaluated, and 5 min after CNES application, blood was collected for obtaining plasma and serum, and the penis was excised. Serum samples were immediately frozen until determinations of NOx and TBARS. Plasma and penile tissues were immediately frozen until determinations of cGMP.

diabetic rats = experiment: Glycemia, arterial pressure and heart rate in STZ-diabetic rats after 10 days s.c. treatment; format: in vivo, rat (Sprague-Dawley); conditions: 3 or 10 mg/kg/day s.c. for 10 days
Method: Male Sprague-Dawley rats were used as a model for this study. Diabetes was induced by a single injection of streptozotocin (STZ, 60 mg/kg; i.p.) dissolved in 0.1 M citric acid/trisodic citrate buffer (pH 4-4.5) and was assessed by glycemia determination 72 h after induction. Animals were kept, with free access to food and water, for 8 weeks before experimental assays. Eight weeks after induction of diabetes, rats show reduced erectile responses (Angulo et al., Naunyn-Schmiedeberg's Arch Pharmacol, 358(5), 529-37, 1998; Angulo et al., J. Sex Med., 2, 341-346, 2005). Blood glucose concentration was determined each week and just before the experiment. Insulin levels were not determined. […] After this period of treatment, the diabetic rats were anesthetized and ICP responses to electrical stimulation were evaluated. After an equilibration period, the PDE5 inhibitor sildenafil (0.3 mg/kg) or the vehicle (25% glycofurol) was intravenously administered. Forty five minutes later, ICP responses were again determined

[3] = system: human penile resistance arteries (HPRA); experiment: Relaxation of human penile resistance arteries contracted with U46619 (myograph); format: cell-based; set-up: effect on endothelium-dependent relaxation of HPRA caused by acetylcholine / effect on sildenafil-mediated relaxation of HPRA: unit of the concentration uncertain; conditions: for effect on endothelium-dependent relaxation of HPRA caused by acetylcholine: metoprolol (1 (unit uncertain)), nebivolol (0.3 (unit uncertain))
Method: Specimens of human corpus cavernosum were obtained from organ donors and from impotent men at the time of penile prosthesis implantation. Tissues were placed in ice-cold M-400 solution (pH 7.4; 400 mOsm/kg, composition in w/v: 4.19% manitol, 0.2% KH2PO4, 0.97% K2HPO4.3H2O, 0.11% KCl and 0.08% NaHCO3) at the time of removal and transported to the laboratory for utilization within 16 h.
To determine the resistance of penile small arteries, helicine arteries (lumen diameter 150-400 μm) which are the terminal branches of deep penile arteries, were dissected by carefully removing the adhering trabecular tissue, and arterial ring segments (2 mm long) were subsequently mounted on two 40 μm wires on microvascular double Halpern-Mulvany myographs (J.P. Trading, Aarhus, Denmark) for isometric tension recordings. The chambers were filled with PSS continuously bubbled with 95% O2/5% CO2 mixture to maintain a pH of 7.4. […]

cGMP in rat plasma [4] = experiment: Plasma cGMP in STZ-diabetic rats; format: in vivo, rat (Sprague-Dawley)
Method: Male Sprague-Dawley rats were used as a model for this study. Diabetes was induced by a single injection of streptozotocin (STZ, 60 mg/kg; i.p.) dissolved in 0.1 M citric acid/trisodic citrate buffer (pH 4-4.5) and was assessed by glycemia determination 72 h after induction. Animals were kept, with free access to food and water, for 8 weeks before experimental assays. Eight weeks after induction of diabetes, rats show altered in vivo vascular function (Angulo et al., Naunyn-Schmiedeberg's Arch Pharmacol, 358(5), 529-37, 1998) and reduced erectile responses (Angulo et al., J. Sex Med., 2, 341-346, 2005). Blood glucose concentration was determined each week and just before the experiment. Insulin levels were not determined. Plasma samples were collected, immediately frozen and stored at −80° C. until extraction for cyclic nucleotide assay. Samples were then precipitated in ethanol, centrifuged and the supernatant was dried under a nitrogen stream. Penile tissues were rapidly immersed in liquid nitrogen and were stored at −80° C. until extraction for cyclic nucleotide assay. […] After 10 days treatment, diabetic rats were anesthetized and erectile responses to cavernosal nerve electrical stimulation (CNES) were determined. After an equilibration period, the PDE-5 inhibitor sildenafil (0.3 mg/kg) or the vehicle (25% glycofurol) was intravenously administered. Forty five minutes later, erectile responses to CNES were again evaluated, and 5 min after CNES application, blood was collected for obtaining plasma and serum, and the penis was excised. Serum samples were immediately frozen until determinations of NOx and TBARS. Plasma and penile tissues were immediately frozen until determinations of cGMP.

## OC(CNCC(O)C1CCc2cc(F)ccc2O1)C1CCc2cc(F)ccc2O1 (racemic) [nebivolol, α,α′-iminobis(methylene)bis[6-fluoro-2-chromanmethanol]]
Anaesthetized dogs
  effect on stroke volume: augments stroke volume
  effect on total peripheral vascular resistance: decreases total peripheral vascular resistance
cGMP in rat plasma [1]; 3 mg/kg i.v., 10 minutes after administration, percentage of cGMP concentration before administration (FIG. 15)
  increase in plasma cGMP levels: 177±38%
cGMP in rat plasma [1]; combination of sildenafil and nebivolol
  interaction with sildenafil on plasma cGMP levels: synergistically increases plasma cGMP levels
cGMP in rat plasma [1]; nebivolol 3 mg/kg + sildenafil 0.3 mg/kg i.v.
  plasma cGMP levels after combined administration with sildenafil: marked increase of cGMP levels
cGMP in rat plasma [1]; nebivolol 1 and 3 mg/kg + sildenafil 0.3 mg/kg i.v.
  plasma cGMP levels after combining sildenafil with nebivolol, dose-dependent: significant further increase
[2]; 10 mg/kg/day for 10 days
  effect on TBARS levels in diabetic rats: significant reduction
[2]; administered for 10 days
  effect on TBARS levels in diabetic rats: trend to reduce
Diabetic rats
  effect on arterial pressure in diabetic rats: Neither diabetes nor either drug treatment (nebivolol or atenolol) significantly affected
  effect on heart rate in diabetic rats: further reduced
[3]; Homo sapiens, nebivolol 1 nM to 10 μM, read-out: EC50, endothelium-dependent vasodilation of HPRA
  EC50: 24.4 nM
[3]; Homo sapiens, nebivolol 1 nM to 10 μM, read-out: Emax, endothelium-dependent vasodilation of HPRA
  Emax: 59.1 ± 10.3%
[3]; U46619 30-100 nM
  relaxation of HPRA compared with metoprolol or atenolol: significantly more potent than those caused by metoprolol or atenolol
[3]; U46619 30-100 nM, 1 nM to 0.1 mM
  relaxation of HPRA by cumulative addition: marked relaxations
[3]; atenolol (1 (unit uncertain))
  effect on endothelium-dependent relaxation of HPRA caused by acetylcholine: not affected
[3]; nebivolol (1 (unit uncertain)), atenolol (1 (unit uncertain))
  effect on sildenafil-mediated relaxation of HPRA: able to enhance
cGMP in rat plasma [4]; 3 and 10 mg/kg/day for 10 days
  effect on plasma cGMP content in diabetic rats: did not result in significant modifications
cGMP in rat plasma [4]; 3 and 10 mg/kg/day for 10 days, sildenafil 0.3 mg/kg i.v.
  influence on the effects of sildenafil on plasma cGMP content in diabetic rats: did not influence

## CC(C)NCC(O)COc1ccc(CC(N)=O)cc1 (stereo not drawn) [atenolol]
Diabetic rats
  effect on arterial pressure in diabetic rats: Neither diabetes nor either drug treatment (nebivolol or atenolol) significantly affected
  effect on heart rate in diabetic rats: further reduced
[3]; atenolol (1 (unit uncertain))
  effect on endothelium-dependent relaxation of HPRA caused by acetylcholine: not affected

## CCCc1nn(C)c2c(=O)[nH]c(-c3cc(S(=O)(=O)N4CCN(C)CC4)ccc3OCC)nc12 [sildenafil]
cGMP in rat plasma [1]; i.v.: atenolol 3 mg/kg, sildenafil 0.3 mg/kg, sodium nitroprusside 0.1 mg/kg
  effect on plasma cGMP levels: augmented cGMP up to similar levels than nebivolol
[2]; sildenafil 0.3 mg/kg i.v.
  influence on serum TBARS levels: did not significantly influence
cGMP in rat plasma [4]; sildenafil 0.3 mg/kg i.v.
  effect on plasma cGMP levels in diabetic and non diabetic rats: marked increase
